In ChEMBL document CHEMBL3792336, “Synthesis and antitumor activity of ATB-429 derivatives containing a nitric oxide-releasing moiety” (Bioorg Med Chem Lett, 2016):

Key:
HT-29 [1] = experiment: Antiproliferative activity against human HT-29 cells at 30 uM after 72 hrs by MTT assay; type: functional; settings: HT-29, 72 h
[2] = Antiproliferative activity against human HL60 cells at 30 uM after 72 hrs by MTT assay; type: functional; settings: HL-60, 72 h
A549 [3] = experiment: Antiproliferative activity against human A549 cells at 30 uM after 72 hrs by MTT assay; type: functional; settings: A549, 72 h
[4] = Antiproliferative activity against human PANC1 cells after 72 hrs by MTT assay; type: functional, cell-based; settings: PANC-1, 72 h
[5] = Antiproliferative activity against human PANC1 cells at 30 uM after 72 hrs by MTT assay; type: functional; settings: PANC-1, 72 h
HT-29 [6] = experiment: Antiproliferative activity against human HT-29 cells after 72 hrs by MTT assay; type: functional, cell-based; settings: HT-29, 72 h
[7] = Antiproliferative activity against human DU145 cells at 30 uM after 72 hrs by MTT assay; type: functional; settings: DU-145, 72 h
MCF7 [8] = experiment: Antiproliferative activity against human MCF7 cells at 30 uM after 72 hrs by MTT assay; type: functional; settings: MCF7, 72 h
[9] = Antiproliferative activity against human HL60 cells after 72 hrs by MTT assay; type: functional, cell-based; settings: HL-60, 72 h
[10] = Antiproliferative activity against human DU145 cells after 72 hrs by MTT assay; type: functional, cell-based; settings: DU-145, 72 h
A549 [11] = experiment: Antiproliferative activity against human A549 cells after 72 hrs by MTT assay; type: functional, cell-based; settings: A549, 72 h
MCF7 [12] = experiment: Antiproliferative activity against human MCF7 cells after 72 hrs by MTT assay; type: functional, cell-based; settings: MCF7, 72 h

Work on CC(C)(C)OC(=O)Nc1ccc(OCCOc2no[n+]([O-])c2S(=O)(=O)c2ccccc2)c(C(=O)Oc2ccc(-c3cc(=S)ss3)cc2)c1 yielded an inhibition at 30 µM (HT-29 [1]) of 103%, an inhibition at 30 µM [2] of 84.6% and an inhibition at 30 µM (A549 [3]) of 88.5%. For the same molecule, the IC50 [4] was 1450 nM, the inhibition at 30 µM [5] was 97.1% and the IC50 (HT-29 [6]) was 256 nM. For the same molecule, the inhibition at 30 µM [7] was 61.6% and the inhibition at 30 µM (MCF7 [8]) was 83.1%.
In the case of O=C(Nc1ccc(OC(=O)CCCO[N+](=O)[O-])c(C(=O)Oc2ccc(-c3cc(=S)ss3)cc2)c1)Nc1ccc(F)cc1F, the inhibition at 30 µM (HT-29 [1]) is reported as -6.41%, the inhibition at 30 µM [2] is reported as 0.43% and the inhibition at 30 µM (A549 [3]) is reported as -28%. It also gave an inhibition at 30 µM [5] of -14.8%, an inhibition at 30 µM [7] of -7.47% and an inhibition at 30 µM (MCF7 [8]) of -6.87%.
In the case of Nc1ccc(OCCOc2no[n+]([O-])c2S(=O)(=O)c2ccccc2)c(C(=O)Oc2ccc(-c3cc(=S)ss3)cc2)c1, the IC50 [9] is reported as 1880 nM, the IC50 [10] is reported as 1270 nM and the IC50 (A549 [11]) is reported as 4170 nM. The inhibition at 30 µM (HT-29 [1]) was 102%, the inhibition at 30 µM [2] was 92.3% and the inhibition at 30 µM (A549 [3]) was 100%. For the same molecule, the IC50 [4] was 1860 nM, the inhibition at 30 µM [5] was 96.6% and the IC50 (HT-29 [6]) was 769 nM. For the same molecule, the IC50 (MCF7 [12]) was 2680 nM, the inhibition at 30 µM [7] was 93.8% and the inhibition at 30 µM (MCF7 [8]) was 90.1%.
CC(C)(C)OC(=O)Nc1ccc(OCCCOc2no[n+]([O-])c2S(=O)(=O)c2ccccc2)c(C(=O)Oc2ccc(-c3cc(=S)ss3)cc2)c1 showed an inhibition at 30 µM (HT-29 [1]) of 103%, an inhibition at 30 µM [2] of 84% and an inhibition at 30 µM (A549 [3]) of -23.8%. For the same molecule, the IC50 [4] was 3020 nM, the inhibition at 30 µM [5] was 97.4% and the IC50 (HT-29 [6]) was 926 nM. It also gave an inhibition at 30 µM [7] of 67.9% and an inhibition at 30 µM (MCF7 [8]) of 25.2%.
O=C(Nc1cccc(C(F)(F)F)c1)Nc1ccc(OC(=O)CCCO[N+](=O)[O-])c(C(=O)Oc2ccc(-c3cc(=S)ss3)cc2)c1 gave an inhibition at 30 µM (HT-29 [1]) of 13.2%, an inhibition at 30 µM [2] of 14.1% and an inhibition at 30 µM (A549 [3]) of -22.1%. It also gave an inhibition at 30 µM [5] of -5.71%, an inhibition at 30 µM [7] of -14.2% and an inhibition at 30 µM (MCF7 [8]) of -6.78%.
With COc1ccc(NC(=O)Nc2ccc(OC(=O)CCCO[N+](=O)[O-])c(C(=O)Oc3ccc(-c4cc(=S)ss4)cc3)c2)cc1 the inhibition at 30 µM (HT-29 [1]) was 12.1%, the inhibition at 30 µM [2] was 8.3% and the inhibition at 30 µM (A549 [3]) was 3.19%. The inhibition at 30 µM [5] was 2.19%, the inhibition at 30 µM [7] was -6.39% and the inhibition at 30 µM (MCF7 [8]) was 16%.
With Nc1ccc(OCCOCCOc2no[n+]([O-])c2S(=O)(=O)c2ccccc2)c(C(=O)Oc2ccc(-c3cc(=S)ss3)cc2)c1 the inhibition at 30 µM (HT-29 [1]) was 101%, the inhibition at 30 µM [2] was 84.4% and the inhibition at 30 µM (A549 [3]) was 62.8%. For the same molecule, the IC50 [4] was 8000 nM, the inhibition at 30 µM [5] was 97.1% and the IC50 (HT-29 [6]) was 5440 nM. For the same molecule, the IC50 (MCF7 [12]) was 11900 nM, the inhibition at 30 µM [7] was 63.2% and the inhibition at 30 µM (MCF7 [8]) was 90%.
For O=C(Nc1ccc(F)cc1)Nc1ccc(OC(=O)CCCO[N+](=O)[O-])c(C(=O)Oc2ccc(-c3cc(=S)ss3)cc2)c1, the inhibition at 30 µM (HT-29 [1]) was 6.92%, the inhibition at 30 µM [2] was 8.68% and the inhibition at 30 µM (A549 [3]) was -27.2%. It also gave an inhibition at 30 µM [5] of -12.9%, an inhibition at 30 µM [7] of 15.3% and an inhibition at 30 µM (MCF7 [8]) of 19.1%.
Nc1ccc(OCCCOc2no[n+]([O-])c2S(=O)(=O)c2ccccc2)c(C(=O)Oc2ccc(-c3cc(=S)ss3)cc2)c1 gave an IC50 [10] of 2240 nM, an IC50 (A549 [11]) of 3280 nM and an inhibition at 30 µM (HT-29 [1]) of 103%. It also gave an inhibition at 30 µM [2] of 87.3%, an inhibition at 30 µM (A549 [3]) of 100% and an IC50 [4] of 971 nM. The inhibition at 30 µM [5] was 97.5%, the IC50 (HT-29 [6]) was 559 nM and the IC50 (MCF7 [12]) was 3050 nM. It also gave an inhibition at 30 µM [7] of 94.8% and an inhibition at 30 µM (MCF7 [8]) of 92.1%.
Nc1ccc(OC(=O)CCCO[N+](=O)[O-])c(C(=O)Oc2ccc(-c3cc(=S)ss3)cc2)c1 gave an inhibition at 30 µM (HT-29 [1]) of -13.3%, an inhibition at 30 µM [2] of 8.73% and an inhibition at 30 µM (A549 [3]) of -18.4%. It also gave an inhibition at 30 µM [5] of -10.5%, an inhibition at 30 µM [7] of -7.67% and an inhibition at 30 µM (MCF7 [8]) of -5.55%.
For O=C(Nc1cccc(Cl)c1)Nc1ccc(OC(=O)CCCO[N+](=O)[O-])c(C(=O)Oc2ccc(-c3cc(=S)ss3)cc2)c1, the inhibition at 30 µM (HT-29 [1]) was 21.5%, the inhibition at 30 µM [2] was 10.9% and the inhibition at 30 µM (A549 [3]) was -23.3%. For the same molecule, the inhibition at 30 µM [5] was -17.3%, the inhibition at 30 µM [7] was 5.49% and the inhibition at 30 µM (MCF7 [8]) was 6.1%.
With Cc1cccc(NC(=O)Nc2ccc(OC(=O)CCCO[N+](=O)[O-])c(C(=O)Oc3ccc(-c4cc(=S)ss4)cc3)c2)c1 the inhibition at 30 µM (HT-29 [1]) was 9.56%, the inhibition at 30 µM [2] was 7.34% and the inhibition at 30 µM (A549 [3]) was -19.8%. It also gave an inhibition at 30 µM [5] of -14.2%, an inhibition at 30 µM [7] of -19.3% and an inhibition at 30 µM (MCF7 [8]) of 13.9%.
In the case of CC(C)(C)OC(=O)Nc1ccc(OCCOCCOc2no[n+]([O-])c2S(=O)(=O)c2ccccc2)c(C(=O)Oc2ccc(-c3cc(=S)ss3)cc2)c1, the inhibition at 30 µM (HT-29 [1]) is reported as 103%, the inhibition at 30 µM [2] is reported as 84.5% and the inhibition at 30 µM (A549 [3]) is reported as 18.7%. The IC50 [4] was 2800 nM, the inhibition at 30 µM [5] was 97.9% and the IC50 (HT-29 [6]) was 536 nM. The inhibition at 30 µM [7] was 54.7% and the inhibition at 30 µM (MCF7 [8]) was 63.1%.
Molecule COc1cc2/c(=N/c3ccc(Br)cc3F)nc[nH]c2cc1OCC1CCN(C)CC1 [VANDETANIB] has an IC50 [9] of 1490 nM, an IC50 [10] of 1970 nM and an IC50 (A549 [11]) of 2630 nM. It also gave an IC50 [4] of 4110 nM, an IC50 (HT-29 [6]) of 1920 nM and an IC50 (MCF7 [12]) of 3540 nM.
